According to patent US20240417404A1, “CRYSTALLINE FORMS OF N-[4-[4-(4-MORPHOLINYL)-7H-PYRROLO[2,3-d]PYRIMIDIN-6-YL]PHENYL]-4-[[3(R)-[(1-OXO-2-PROPEN-1-YL)AMINO]-1-[sequence]]METHYL]-2-PYRIDINECARBOXAMIDE AS IRREVERSIBLE INHIBITORS OF MENIN-MLL INTERACTION” (BIOMEA FUSION, INC., priority 2023, published 2024):
Like-named read-outs stand apart in the source and are kept apart here.

How the values were obtained:
VAL = test: DLBCL cell line proliferation (Cell Titer Glo, four days): VAL; format: cell-based; settings: THL
Procedure: (§1) DLBCL cell line TOLEDO was cultured in the presence of Compound A or clinical reversible menin inhibitors for six and fourteen hours. Menin protein expression was reduced up to 60% at 1 μM by Compound A after fourteen hours compared to clinical reversible inhibitors at <20% at similar concentrations. Menin protein expression was measured by the Wes system and analyzed using the Compass software (automated western blotting, Protein Simple). Signal was normalized to GAPDH and referenced to DMSO control (FIG. 36E). DLBCL and MM cell lines were cultured with Compound A, bortezomib (PS-341), or DMSO for four days and cell proliferation was measured by Cell Titer Glo. Ex vivo studies of DLBCL and MM models were conducted by measurement of cell proliferation (Cell Titer Glo) after six days of treatment with Compound A, PS-341, or DMSO control.

MM1.R = test: MM cell line proliferation (Cell Titer Glo, four days): MM1.R; format: cell-based; settings: t(14; 16), KRAS G12A
Procedure: as §1

[1] = tested on: human pancreatic islet beta cells; test: Beta cell proliferation in human islet microtissues; format: cell-based
Procedure: Human islet microtissues were aggregated for 5 days and then released into ultra-low attachment plates. Half of the plates were maintained in standard culture medium (5.5 mM glucose), and half were cultured in high-glucose culture medium (GTX, 8 mM glucose) starting at Day 6, for the duration of the whole experiment. Starting on Day 9 (after 3 days of GTX pre-treatment for the relevant plates), dosing with compounds was initiated, using a Tecan D300e Digital Dispenser. DMSO was normalized by volume across all wells. Media were exchanged and compounds were redosed every 2-3 days throughout the experiment. Compound dosing was randomized; to avoid compound cross-contamination between wells, all medium exchanges were performed using 96-well deep well plates with pipette tip exchange.
FIG. 32 provides human pancreatic islet beta cell proliferation on Day 14 and Day 21. In FIG. 32, A is ATP content; B is proliferating beta cell fraction; and C is beta cell fraction. Upper graphs are standard media, and lower graphs are high glucose media. […]
Individual islet microtissues can be cultured in 96-well culture plates and maintained in the presence of Compound 10, a representative irreversible menin-MLL inhibitor, at the appropriate concentration. […] Following 2 or more weeks of culturing, proliferation of beta cells is monitored via immunofluorescence staining for appropriate markers. […]

SKMM1 = test: MM cell line proliferation (Cell Titer Glo, four days): SKMM1; format: cell-based; settings: SKMM1, t(14; 20), NRAS G12A
Procedure: as §1

[2] = tested on: KRAS mutated CRC, NSCLC and pancreatic cancer cell lines; test: Proliferation of KRAS mutated cell lines (CellTiter-Glo, four days); format: cell-based, human; settings: for GI50: Homo sapiens, Pancreatic cancer cell
Procedure: The inhibitory effect on cell proliferation was investigated in the human pancreas KRAS mutated cell lines MIA PaCa-2, HuP-T4, HPAF-II, human lung KRAS mutated cell line NCI-H358, and human colon KRAS mutated cell lines SW837, SW60, and NCI-H747. […] Cells were grown by adhering to culture flasks, and maintained at 70%-80% confluency.
ATP is present in all metabolically active cells and is considered as a marker for viable cells. […] The cell proliferation assay was performed using a 96-well plate format.
Eight concentrations of test compound were assessed in duplicate for each experimental run. 100% cell proliferation is represented by the untreated cells (0.2% DMSO).
200 μL of cell suspension were added to each well of a 96-well plate.
Cell viability was measured using CellTiter Glo. […] Cell viability was measured using CellTiter Glo.

C=CC(=O)N[C@@H]1CCCN(Cc2ccnc(C(=O)Nc3ccc(-c4cc5c(N6CCOCC6)ncnc5[nH]4)cc3)c2)C1 [Compound A, N-[4-[4-(4-morpholinyl)-7H-pyrrolo[2,3-d]pyrimidin-6-yl]phenyl]-4-[[3(R)-[(1-oxo-2-propen-1-yl)amino]-1-piperidinyl]methyl]-2-pyridinecarboxamide]
Average % Max Inhibition by Compound A (VAL; MYC/BCL2/BCL6): 97.1%
IC50 (VAL; MYC/BCL2/BCL6, read-out: Average IC50 ± Standard Deviation): 271 ± 70 nM
Average % Max Inhibition by Compound A (MM1.R): 99.6%
human pancreatic islet beta cell proliferation (proliferating beta cell fraction) ([1]; Day 14 and Day 21, compared to control): induced human pancreatic islet beta cells substantially compared to control
beta-cell proliferation ([1]; glucose stress (8 mM glucose) vs standard glucose (5.5 mM)): dose dependent increase in beta-cell proliferation under glucose stress condition, but not under standard glucose conditions
Average % Max Inhibition by Compound A (SKMM1): 99.2%
IC50 (SKMM1; read-out: Average IC50 ± Standard Deviation): 467 ± 50 nM
GI50 ([2]; the 31st table c1, read-out: KRAS G12C GI50 (μM) NSCLC (8)): 0.36 to 0.57 µM
GI50 ([2]; the 31st table c2, read-out: KRAS G12D GI50 (μM) Pancreatic (1)): 0.43 µM
GI50 ([2]; the 31st table c3, read-out: KRAS G13D GI50 (μM) CRC (1)): 0.57 µM
GI50 ([2]; the 31st table c4, read-out: KRAS G12V GI50 (μM) NSCLC (1)): 0.29 µM
GI50 ([2]; the 31st table c6, read-out: GI50 Summary Tumor Type): 0.42 µM
GI50 ([2]; the 31st table c7 (second block of heads), read-out: KRAS G12C GI50 (μM) NSCLC (8)): 0.34 µM
GI50 ([2]; the 31st table c8 (second block of heads), read-out: KRAS G12D GI50 (μM) Pancreatic (1)): 0.37 to 0.57 µM
GI50 ([2]; the 31st table c9 (second block of heads), read-out: KRAS G13D GI50 (μM) CRC (1)): 0.45 µM
GI50 ([2]; the 31st table c10 (second block of heads), read-out: KRAS G12V GI50 (μM) NSCLC (1)): 1.6 µM
growth inhibition of KRAS-mutated cell lines compared to a known KRAS therapeutic ([2]; all cancer cell types tested): significantly greater growth inhibition
inhibition of growth ([2]; most of fourteen CRC, NSCLC, pancreatic KRAS mutated cell lines, four-day treatment): > 90%
inhibition of cell viability ([2]; seven of ten KRAS G12C NSCLC cell lines): ≥ 90%
KRAS G12V GI50 (μM) NSCLC (1) ([2]; the 31st table c10 (second block of heads)): LR (Limited Response (LR) = % growth inhibition <30%)
